Results reported in PMC10986499, “Unravelling HetC as a peptidase-based ABC exporter driving functional cell differentiation in the cyanobacterium Nostoc PCC 7120” (Microbiology Spectrum, 2024).

How the values were obtained:
HetC [1] = target: T1, HetC (Nostoc sp. PCC 7120 = FACHB-418, UniProt A0ACD7RTN5); assay: ITC (triplicate), supported by nanoDSF shift (ΔTm […] °C at […]); type: binding
T1 construct: HetCNTD, N-terminal domain (first 480 residues)

HetC [2] = target: T2, HetC (Nostoc sp. PCC 7120 = FACHB-418, UniProt A0ACD7RTN5); assay: chromogenic peptidase assay at […] nm with purified HetCNTD, […] substrate; type: biochemical
T2 construct: HetCNTD, N-terminal domain (first 480 residues; includes C39 peptidase domain), hexa-his tagged
T2 sequence (A0ACD7RTN5 1-480): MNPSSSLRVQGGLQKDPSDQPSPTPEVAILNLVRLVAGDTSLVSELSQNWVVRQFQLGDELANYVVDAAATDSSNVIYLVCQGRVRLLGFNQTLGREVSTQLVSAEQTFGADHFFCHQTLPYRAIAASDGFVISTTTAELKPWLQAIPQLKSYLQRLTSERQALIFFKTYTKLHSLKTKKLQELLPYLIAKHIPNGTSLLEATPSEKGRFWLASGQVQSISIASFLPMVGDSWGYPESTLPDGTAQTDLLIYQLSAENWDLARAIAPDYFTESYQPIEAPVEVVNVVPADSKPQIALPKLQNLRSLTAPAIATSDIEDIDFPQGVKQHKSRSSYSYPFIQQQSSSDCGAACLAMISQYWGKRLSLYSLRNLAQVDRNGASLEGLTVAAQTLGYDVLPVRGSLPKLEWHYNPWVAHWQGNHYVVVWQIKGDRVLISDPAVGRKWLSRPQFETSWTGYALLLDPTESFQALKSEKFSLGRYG

Nc1nc2c(ncn2[C@@H]2O[C@H](COP(=O)(O)OP(=O)(O)O)[C@@H](OP(=O)(O)OP(=O)(O)O)[C@H]2O)c(=O)[nH]1 [ppGpp]
Kd (HetC [1]): ~59 µM

N=C(N)NCCC[C@H](N)C(=O)Nc1ccc([N+](=O)[O-])cc1 [L-Arginine p-nitroanilide]
chromogenic peptidase assay at 405 nm with purified HetCNTD, 1 mM substrate (HetC [2]): 0.22 ± 0.08 pmol/min/µg of protein
